Assay results from patent US20040167181A1, “Methods of treating conditions associated with an Edg-3 receptor” (priority 2003, published 2004).
Entries after “also recorded” stand apart in the source; their conditions may differ.

Legend:
Endothelin ETA = target: T1, Endothelin ETA (Homo sapiens, UniProt P25101); assay: Radioligand binding assay, Endothelin ETA; details: Human recombinant CHO cells; 0.03 nM 125 Endothelin; significance criteria ≦50% of max stimulation or inhibition
T1 construct: expressed in transfected cells; host or cells: CHO cells
T1 sequence (P25101 21-427): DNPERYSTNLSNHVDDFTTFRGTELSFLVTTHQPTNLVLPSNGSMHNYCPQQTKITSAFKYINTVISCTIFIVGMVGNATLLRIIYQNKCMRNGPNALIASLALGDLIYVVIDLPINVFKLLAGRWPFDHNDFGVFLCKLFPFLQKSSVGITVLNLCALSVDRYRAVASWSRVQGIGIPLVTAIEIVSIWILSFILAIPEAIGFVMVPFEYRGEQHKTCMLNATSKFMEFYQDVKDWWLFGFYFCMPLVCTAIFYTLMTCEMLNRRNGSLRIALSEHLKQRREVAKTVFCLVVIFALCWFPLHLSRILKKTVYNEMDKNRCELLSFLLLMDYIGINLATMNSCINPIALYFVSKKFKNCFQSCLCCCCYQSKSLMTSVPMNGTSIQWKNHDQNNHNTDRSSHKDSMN
Protocol: (§1) In order to test the selectivity of compounds, various radioligand binding assays were performed using numerous non-Edg receptor targets as listed below.
(§2) A radioligand binding assay was performed using adrenergic α1 according to the method of Greengrass and Bremner 1979, Eur. J. Pharmacol. 55:323-326. A radioligand binding assay was performed using adrenergic α2 according to the method of Boyajian and Leslie, 1987, J. Pharmacol. Exp. Ther. 241:1092-1098. A radioligand binding assay was performed using adrenergic β according to the method of Feve et al., 1994, Proc. Natl. Acad. Sci. USA 91:5677-5681. A radioligand binding assay was performed using angiotensin AT2 according to the method of Whitebread et al., 1991, Biochem. Biophys. Res. Comm. 181:1365-1371. A radioligand binding assay was performed using calcium channel Type L, dihydropyridine according to the method of Ehlert et al., 1982, Life Sci. 30:2191-2202. A radioligand binding assay was performed using dopamine D2L according to the method of Bunzo et al., 1988, Nature 336:783-787. A radioligand binding assay was performed using endothelin ETA according to the method of Mihara et al., 1994, J. Pharmacol. Exp Ther. 268:1122-1127. A radioligand binding assay was performed using histamine H1 Central according to the method of Hill et al., 1978, J. Neurochem. 31:997-1004. […]
(§3) Quantitation Method: Radioligand Binding […]

[1] = test system: Calcium Channel Type L, Dihydropyridine; assay: Radioligand binding assay, Calcium Channel Type L, Dihydropyridine; details: Wistar Rat cerebral cortex; 0.1 nM 3H Nitrendipine; significance criteria ≦50% of max stimulation or inhibition
Protocol: as §1, §2, §3

[2] = test system: Serotonin 5-HT1, non-selective; assay: Radioligand binding assay, Serotonin 5-HT1, non-selective; details: Wistar rat cerebral cortex; 2 nM 3H Serotonin (5-HT) Trifluoroacetate; significance criteria ≦50% of max stimulation or inhibition
Protocol: as §1, §2, §3

[3] = test system: Muscarinic non-selective, Central; format: binding; details: Wistar rat cerebral cortex; 0.29 nM 3H Quinuclidinyl benzilate; significance criteria ≦50% of max stimulation or inhibition
[4] = test system: Adrenergic α1, non-selective; assay: Radioligand binding assay, Adrenergic α1, non-selective; details: Wistar Rat brain; 0.25 nM 3H Prazosin; significance criteria ≦50% of max stimulation or inhibition
Protocol: as §1, §2, §3

human Edg-3 receptors = target: T2, human Edg-3 receptors (Homo sapiens, UniProt Q99500); assay: Calcium response in HTC cells expressing human Edg-3 receptors; format: cell-based; details: HTC cells expressing human Edg-3 receptors (also tested in NIH 3T3 cell lines that naturally express Edg-3); FIG. 1
T2 construct: expressed in transfected cells; host or cells: HTC (rat hepatoma) cells
T2 sequence (Q99500 whole entry): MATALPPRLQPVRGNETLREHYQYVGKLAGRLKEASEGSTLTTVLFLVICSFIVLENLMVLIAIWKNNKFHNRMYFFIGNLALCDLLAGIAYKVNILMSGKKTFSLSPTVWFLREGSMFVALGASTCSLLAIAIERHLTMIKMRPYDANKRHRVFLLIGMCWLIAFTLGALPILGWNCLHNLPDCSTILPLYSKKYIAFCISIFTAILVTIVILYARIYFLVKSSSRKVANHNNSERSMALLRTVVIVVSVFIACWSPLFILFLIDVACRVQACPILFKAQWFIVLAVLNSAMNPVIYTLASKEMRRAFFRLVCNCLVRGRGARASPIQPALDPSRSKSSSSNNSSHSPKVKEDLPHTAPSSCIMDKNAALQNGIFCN
Text: Specific assays for Edg-3 receptor activity are known to those of skill in the art. For example, cells expressing Edg-3 receptors can be contacted with a membrane-permeant calcium sensitive dye such as Fluo-4 AM or a proprietary calcium dye loading kit (e.g., FLIPR Calcium Assay kit, Molecular Devices, Sunnyvale, Calif.). Intracellular calcium is capable of binding to the dye and emitting fluorescent radiation when illuminated at the appropriate wavelength. The cells can thus be illuminated an appropriate wavelength for the dye and any emitting light can be captured by a cooled CCD camera. Changes in fluorescence indicate changes in intracellular calcium resulting from the activation of an Edg-3 receptor. Such changes can be measured advantageously in whole cells in “real-time” (Berridge et al., Nature Reviews 2000, 1:11-21).
The compounds were tested in HTC cells expressing human Edg-3 receptors, as well as in NIH 3T3 cell lines that naturally express Edg-3 receptors. […] The compounds are tested in this recombinant system first, and subsequently tested in cell lines expressing Edg-3 (in addition to other Edg receptors).

Edg-1 = target: T3, Edg-1 (Homo sapiens, UniProt P21453); assay: S1P-stimulated calcium increases in HTC cells expressing Edg-1; format: cell-based; details: concentrations as high as 10 μM
T3 construct: expressed in transfected cells; host or cells: HTC (rat hepatoma) cells
T3 sequence (P21453 whole entry): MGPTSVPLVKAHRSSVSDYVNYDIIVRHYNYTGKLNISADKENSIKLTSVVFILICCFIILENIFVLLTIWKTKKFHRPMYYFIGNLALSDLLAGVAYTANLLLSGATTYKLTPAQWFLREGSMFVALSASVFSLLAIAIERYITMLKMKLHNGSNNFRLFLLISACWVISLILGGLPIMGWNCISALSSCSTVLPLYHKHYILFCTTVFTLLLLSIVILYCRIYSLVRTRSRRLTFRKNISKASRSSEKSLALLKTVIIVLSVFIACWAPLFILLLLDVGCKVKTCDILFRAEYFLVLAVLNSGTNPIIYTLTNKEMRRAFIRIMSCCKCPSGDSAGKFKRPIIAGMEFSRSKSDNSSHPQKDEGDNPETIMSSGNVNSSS

Dopamine D2L = target: T4, Dopamine D2L (Homo sapiens, UniProt P14416); assay: Radioligand binding assay, Dopamine D2L; details: Human recombinant CHO cells; 0.16 nM 3H Spiperone; significance criteria ≦50% of max stimulation or inhibition
T4 construct: expressed in transfected cells; host or cells: CHO cells
T4 sequence (P14416 whole entry): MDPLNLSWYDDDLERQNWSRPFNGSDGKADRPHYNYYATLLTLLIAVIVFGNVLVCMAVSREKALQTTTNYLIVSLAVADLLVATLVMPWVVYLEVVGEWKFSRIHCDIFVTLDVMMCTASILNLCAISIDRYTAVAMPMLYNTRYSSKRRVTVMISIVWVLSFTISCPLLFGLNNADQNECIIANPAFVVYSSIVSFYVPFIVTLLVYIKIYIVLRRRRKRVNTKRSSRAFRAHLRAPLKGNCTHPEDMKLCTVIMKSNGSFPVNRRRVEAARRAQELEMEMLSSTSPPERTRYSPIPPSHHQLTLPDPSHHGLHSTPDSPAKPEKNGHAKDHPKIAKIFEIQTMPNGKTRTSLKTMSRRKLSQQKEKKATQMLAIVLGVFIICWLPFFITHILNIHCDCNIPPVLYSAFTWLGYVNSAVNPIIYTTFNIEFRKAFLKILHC
Protocol: as §1, §2, §3

Edg-7 = target: T5, Edg-7 (Homo sapiens, UniProt Q9UBY5); assay: LPA-stimulated calcium increases in HTC cells expressing Edg-7; format: cell-based; details: concentrations as high as 10 μM
T5 construct: expressed in transfected cells; host or cells: HTC (rat hepatoma) cells
T5 sequence (Q9UBY5 1-353): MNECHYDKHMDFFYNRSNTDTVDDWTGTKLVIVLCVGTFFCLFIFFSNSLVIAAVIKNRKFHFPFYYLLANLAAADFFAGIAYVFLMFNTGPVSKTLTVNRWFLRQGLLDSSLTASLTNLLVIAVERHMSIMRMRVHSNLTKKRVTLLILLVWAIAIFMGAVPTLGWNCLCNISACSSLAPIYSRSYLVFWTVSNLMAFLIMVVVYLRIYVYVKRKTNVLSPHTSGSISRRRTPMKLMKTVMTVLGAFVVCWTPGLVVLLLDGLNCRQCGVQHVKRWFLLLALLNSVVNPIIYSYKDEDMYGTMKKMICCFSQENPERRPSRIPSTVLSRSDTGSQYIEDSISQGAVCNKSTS

Edg-5 = target: T6, Edg-5 (Homo sapiens, UniProt O95136); assay: S1P-stimulated calcium increases in HTC cells expressing Edg-5; format: cell-based; details: concentrations as high as 10 μM
T6 construct: expressed in transfected cells; host or cells: HTC (rat hepatoma) cells
T6 sequence (O95136 whole entry, species assumed): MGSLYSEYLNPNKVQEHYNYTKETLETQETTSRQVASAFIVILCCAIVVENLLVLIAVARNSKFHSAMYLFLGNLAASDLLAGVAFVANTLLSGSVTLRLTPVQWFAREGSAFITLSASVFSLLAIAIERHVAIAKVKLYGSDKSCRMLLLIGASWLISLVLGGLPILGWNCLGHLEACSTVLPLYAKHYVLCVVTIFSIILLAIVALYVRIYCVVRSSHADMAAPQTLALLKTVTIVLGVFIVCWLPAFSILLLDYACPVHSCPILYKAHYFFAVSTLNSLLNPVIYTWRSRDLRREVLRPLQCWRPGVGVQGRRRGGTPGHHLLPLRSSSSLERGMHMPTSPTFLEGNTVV

Adrenergic β = assay: Radioligand binding assay, Adrenergic β; details: Wistar rat brain; 0.25 nM 3H Dihydroaplenolol; significance criteria ≦50% of max stimulation or inhibition
Protocol: as §1, §2, §3

Edg-8 = target: T7, Edg-8 (Homo sapiens, UniProt Q9H228); assay: S1P-stimulated calcium increases in HTC cells expressing Edg-8; format: cell-based; details: concentrations as high as 10 μM
T7 construct: expressed in transfected cells; host or cells: HTC (rat hepatoma) cells
T7 sequence (Q9H228 whole entry, species assumed): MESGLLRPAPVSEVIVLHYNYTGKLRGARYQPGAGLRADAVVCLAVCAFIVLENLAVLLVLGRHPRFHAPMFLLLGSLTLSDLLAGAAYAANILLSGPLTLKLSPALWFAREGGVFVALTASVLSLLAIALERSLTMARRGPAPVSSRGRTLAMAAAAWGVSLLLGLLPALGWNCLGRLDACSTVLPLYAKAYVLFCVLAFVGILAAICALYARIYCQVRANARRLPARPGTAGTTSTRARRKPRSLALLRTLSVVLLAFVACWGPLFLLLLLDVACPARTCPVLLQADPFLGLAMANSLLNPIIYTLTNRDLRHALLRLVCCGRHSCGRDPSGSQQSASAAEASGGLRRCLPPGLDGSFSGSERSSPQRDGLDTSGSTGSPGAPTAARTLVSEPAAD

Edg-2 = target: T8, Edg-2 (Homo sapiens, UniProt Q92633); assay: LPA-stimulated calcium increases in HTC cells expressing Edg-2; format: cell-based; details: concentrations as high as 10 μM
T8 construct: expressed in transfected cells; host or cells: HTC (rat hepatoma) cells
T8 sequence (Q92633 whole entry): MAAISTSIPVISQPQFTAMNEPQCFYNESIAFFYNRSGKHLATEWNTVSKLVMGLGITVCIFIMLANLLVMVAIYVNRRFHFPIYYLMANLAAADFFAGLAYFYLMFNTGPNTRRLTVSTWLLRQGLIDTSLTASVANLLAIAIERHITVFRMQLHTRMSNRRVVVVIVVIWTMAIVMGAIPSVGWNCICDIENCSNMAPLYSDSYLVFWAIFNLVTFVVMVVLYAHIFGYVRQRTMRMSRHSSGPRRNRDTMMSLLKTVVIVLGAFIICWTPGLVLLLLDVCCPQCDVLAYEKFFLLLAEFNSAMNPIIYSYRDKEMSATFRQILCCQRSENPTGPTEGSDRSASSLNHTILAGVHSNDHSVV

Edg-4 = target: T9, Edg-4 (Homo sapiens, UniProt Q9HBW0); assay: LPA-stimulated calcium increases in HTC cells expressing Edg-4; format: cell-based; details: concentrations as high as 10 μM
T9 construct: expressed in transfected cells; host or cells: HTC (rat hepatoma) cells
T9 sequence (Q9HBW0 whole entry, species assumed): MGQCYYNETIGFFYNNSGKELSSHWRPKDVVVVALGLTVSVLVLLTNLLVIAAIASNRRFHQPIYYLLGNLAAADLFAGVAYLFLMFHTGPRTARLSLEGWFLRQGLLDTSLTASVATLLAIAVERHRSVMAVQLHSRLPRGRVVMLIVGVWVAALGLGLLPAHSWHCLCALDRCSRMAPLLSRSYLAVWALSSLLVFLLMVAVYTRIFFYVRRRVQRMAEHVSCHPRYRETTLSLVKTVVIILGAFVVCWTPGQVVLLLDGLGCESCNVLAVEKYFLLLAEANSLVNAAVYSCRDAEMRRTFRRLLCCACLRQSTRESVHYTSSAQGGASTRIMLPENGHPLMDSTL

Edg-6 = target: T10, Edg-6 (Homo sapiens, UniProt O95977); assay: S1P-stimulated calcium increases in HTC cells expressing Edg-6; format: cell-based; details: concentrations as high as 10 μM
T10 construct: expressed in transfected cells; host or cells: HTC (rat hepatoma) cells
T10 sequence (O95977 1-384): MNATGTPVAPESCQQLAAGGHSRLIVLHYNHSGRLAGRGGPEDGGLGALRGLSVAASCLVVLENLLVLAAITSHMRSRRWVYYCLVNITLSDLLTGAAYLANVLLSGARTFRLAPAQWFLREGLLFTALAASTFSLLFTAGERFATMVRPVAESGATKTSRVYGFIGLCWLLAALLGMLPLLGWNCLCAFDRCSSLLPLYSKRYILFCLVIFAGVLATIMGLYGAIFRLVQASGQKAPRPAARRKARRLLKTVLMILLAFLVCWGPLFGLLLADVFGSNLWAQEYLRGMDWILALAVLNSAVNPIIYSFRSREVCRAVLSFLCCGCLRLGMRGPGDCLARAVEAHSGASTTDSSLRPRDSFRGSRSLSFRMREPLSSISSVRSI

Histamine H1, Central = target: T11, Histamine H1, Central (Cavia porcellus, UniProt P31389); assay: Radioligand binding assay, Histamine H1, Central; details: Guinea pig cerebellum; 1.75 nM 3H Pyrilamine; significance criteria ≦50% of max stimulation or inhibition
T11 construct: from tissue; host or cells: Guinea pig cerebellum
T11 sequence (P31389 whole entry): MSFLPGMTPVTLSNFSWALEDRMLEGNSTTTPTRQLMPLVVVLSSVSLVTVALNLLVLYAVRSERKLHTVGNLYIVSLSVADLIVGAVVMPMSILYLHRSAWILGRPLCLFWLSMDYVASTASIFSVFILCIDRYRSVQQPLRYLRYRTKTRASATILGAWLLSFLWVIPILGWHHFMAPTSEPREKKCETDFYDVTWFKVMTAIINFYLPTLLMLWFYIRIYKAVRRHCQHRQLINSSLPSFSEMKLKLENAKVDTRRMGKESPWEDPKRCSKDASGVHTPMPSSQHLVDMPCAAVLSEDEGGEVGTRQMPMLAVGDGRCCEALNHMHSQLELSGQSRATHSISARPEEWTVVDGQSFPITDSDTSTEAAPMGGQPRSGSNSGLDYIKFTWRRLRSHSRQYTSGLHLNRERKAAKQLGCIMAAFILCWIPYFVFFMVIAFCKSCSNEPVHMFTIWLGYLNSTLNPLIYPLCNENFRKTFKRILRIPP
Protocol: as §1, §2, §3

Adrenergic α2 = assay: Radioligand binding assay, Adrenergic α2; details: Wistar rat cerebral cortex; 0.7 nM 3H Rauwolscine; significance criteria ≦50% of max stimulation or inhibition
Protocol: as §1, §2, §3

Angiotensin AT2 = target: T12, Angiotensin AT2 (Homo sapiens, UniProt P50052); assay: Radioligand binding assay, Angiotensin AT2; details: Human recombinant Hela cells; 0.025 nM 125I CGP-42112A; significance criteria ≦50% of max stimulation or inhibition
T12 construct: expressed in transfected cells; host or cells: Hela cells
T12 sequence (P50052 1-363): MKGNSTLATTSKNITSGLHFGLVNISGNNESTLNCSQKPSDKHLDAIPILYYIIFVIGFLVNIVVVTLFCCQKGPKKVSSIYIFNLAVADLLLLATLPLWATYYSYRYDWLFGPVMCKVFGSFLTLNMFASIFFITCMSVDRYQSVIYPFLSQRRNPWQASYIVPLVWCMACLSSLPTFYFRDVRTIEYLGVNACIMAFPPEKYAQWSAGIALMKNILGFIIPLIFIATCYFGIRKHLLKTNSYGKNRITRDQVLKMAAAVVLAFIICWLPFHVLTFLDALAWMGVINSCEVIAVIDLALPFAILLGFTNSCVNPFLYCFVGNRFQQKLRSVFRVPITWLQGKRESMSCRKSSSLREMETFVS
Protocol: as §1, §2, §3

Cc1c(-c2ccccc2)nc2ccccc2c1C(=O)NCc1ccc(F)cc1 [Compound 101]
activity in radioligand binding assay (Endothelin ETA): no significant activity
activity in radioligand binding assay [1]: no significant activity
activity in radioligand binding assay [2]: no significant activity
activity in radioligand binding assay [3]: no significant activity
activity in radioligand binding assay [4]: no significant activity
inhibition of Edg-3 stimulated SP1 responses (human Edg-3 receptors): demonstrate inhibition; also recorded: specifically inhibit
inhibition of S1P-stimulated calcium increases (Edg-1): did not inhibit
activity in radioligand binding assay (Dopamine D2L): no significant activity
inhibition of LPA-stimulated calcium increases (Edg-7): did not inhibit
inhibition of S1P-stimulated calcium increases (Edg-5): did not inhibit
activity in radioligand binding assay (Adrenergic β): no significant activity
inhibition of S1P-stimulated calcium increases (Edg-8): did not inhibit
inhibition of LPA-stimulated calcium increases (Edg-2): did not inhibit
inhibition of LPA-stimulated calcium increases (Edg-4): did not inhibit
inhibition of S1P-stimulated calcium increases (Edg-6): did not inhibit
activity in radioligand binding assay (Histamine H1, Central): no significant activity
activity in radioligand binding assay (Adrenergic α2): no significant activity
activity in radioligand binding assay (Angiotensin AT2): no significant activity
